Laboratory results published in US6713474B2, “Pyrrolopyrimidines as therapeutic agents” (Abbott GmbH & Co. KG, priority 1998, dated 2004).

SMILES	melting point
CN(C)[C@H]1CC[C@H](n2cc(-c3ccc(Oc4ccccc4)cc3)c3c(N)ncnc32)CC1 [Example 196, Trans-7-(4-Dimethylaminocyclohexyl)-5-(4-phenoxyphenyl)-7H-pyrrolo[2,3-d]pyrimidin-4-ylamine]	207.5 to 210 °C
CN1CCN([C@@H]2CCC[C@H](n3cc(-c4ccc(Oc5ccccc5)cc4)c4c(N)ncnc43)C2)CC1.Cl.Cl.Cl (relative stereo)	224.5 to 226.5 °C (dec.)
Cl.Cl.Nc1ncnc2c1c(-c1ccc(Oc3ccccc3)cc1)cn2C1CNOC1 (centres unmarked)	208 °C (dec.)
Cl.NCCn1cc(-c2ccc(Oc3ccccc3)cc2)c2c(N)ncnc21	284 to 285 °C
CC(C(=O)NCCN(C)C)n1cc(-c2ccc(Oc3ccccc3)cc2)c2c(N)ncnc21 (centres unmarked) [Example 149, N-(2-Dimethylaminoethyl)-2-[4-amino-5-(4-phenoxyphenyl)-7H-pyrrolo[2,3-d]pyrimidin-7-yl)propionamide]	163 to 164 °C
N#Cc1cc(F)ccc1Oc1ccc(-c2cn(C3CCOCC3)c3ncnc(N)c23)cc1 [Example 53, 2-[4-(4-Amino-7-(4-tetrahydropyranyl)-7H-pyrrolo[2,3-d]pyrimidin-5-yl)phenoxy]-5-fluorobenzonitrile]	216 to 217 °C
Nc1ncnc2c1c(-c1ccc(Oc3ccccc3)cc1)cn2C1CCNC1 (centres unmarked) [Example 205, 5-(4-Phenoxyphenyl)-7-(3-pyrrolidinyl) -7H-pyrrolo[2,3-d]pyrimidin-4-ylamine]	182 to 184 °C
N#Cc1ccccc1Oc1ccc(-c2cn(C3CCOCC3)c3ncnc(N)c23)cc1 [Example 42, 2-[4-(4-Amino-7-(4-tetrahydropyranyl)-7H-pyrrolo[2,3-d]pyrimidin-5-yl)phenoxy]benzonitrile]	125 °C
Cl.Cl.Nc1ncnc2c1c(-c1ccc(Oc3ccccc3)cc1)cn2C1CCNC1 (centres unmarked) (hydrate or solvate)	298 °C (dec.)
CC(C(=O)O)n1cc(-c2ccc(Oc3ccccc3)cc2)c2c(N)ncnc21 (centres unmarked) [Example 157, 2-[4-Amino-5-(4-phenoxyphenyl)-7H-pyrrolo[2,3-d]pyrimidin-7-yl]propionic Acid]	239.5 to 241 °C
Nc1ncnc2c1c(-c1ccc(Oc3ccccc3)cc1)cn2C1CCOC1 (centres unmarked) [Example 22, 5-(4-Phenoxyphenyl)-7-(3-tetrahydrofuryl)-7H-pyrrolo[2,3-d]pyrimidin-4-ylamine]	196 to 196.5 °C
Nc1ncnc2c1c(-c1ccc(Oc3ccc(CN4CCOCC4)cc3)cc1)cn2C1CCOC1 (centres unmarked) [Example 36, 5-[4-(4-Morpholinomethylphenoxy)-phenyl]-7-(3-tetrahydrofuryl)-7H-pyrrolo[2,3-d]pyrimidin-4-ylamine]	142 to 144 °C
CCOC(=O)C(C)n1cc(-c2ccc(Oc3ccccc3)cc2)c2c(N)ncnc21 (centres unmarked) [Example 148, Ethyl 2-[4-Amino-5-(4-phenoxyphenyl)-7H-pyrrolo[2,3-d]pyrimidin-7-yl]propionate]	139 to 140 °C
CC(C)(C)OC(=O)N1CCC(n2cc(-c3ccc(Oc4ccccc4)cc3)c3c(N)ncnc32)CC1 [Example 200, tert-Butyl 4-[4-Amino-5-(4-phenoxyphenyl)-7H-pyrrolo[2,3-d]pyrimidin-7-yl]-1-piperidinecarboxylate]	168.5 to 169.5 °C
Nc1ncnc2c1c(-c1ccc(Oc3ccccc3)cc1)c(Br)n2C1CCOC1 (centres unmarked) [Example 40, 4-Amino-6-bromo-5-(4-phenoxyphenyl)-7-(3-tetrahydrofuryl)-7H-pyrrolo[2,3-d]pyrimidine]	205 to 206 °C
Nc1ncnc2c1c(-c1ccc(Oc3cccc(CN4CCOCC4)c3)cc1)cn2C1CCOC1 (centres unmarked) [Example 37, 5-[4-(3-Morpholinomethylphenoxy)phenyl]-7-(3-tetrahydrofuryl)-7H-pyrrolo[2,3-d]pyrimidin-4-ylamine]	83 to 85 °C
CN1CCN(C2CCC(n3cc(-c4ccc(Oc5ccccc5)cc4)c4c(N)ncnc43)C2)CC1.O=C(O)/C=C\C(=O)O.O=C(O)/C=C\C(=O)O.O=C(O)/C=C\C(=O)O (centres unmarked) (hydrate or solvate)	168 to 170 °C (dec.)

Next, values leading:

melting point	SMILES
110 °C	N#Cc1c(NCCCn2ccnc2)cccc1Oc1ccc(-c2cn(C3CCOC3)c3ncnc(N)c23)cc1 (centres unmarked) [Example 39, 2-[4-(4-Amino-7-(3-tetrahydrofuryl)-7H-pyrrolo[2,3-d]pyrimidin-5-yl)phenoxy]-6-(3-imidazol-1-yl)propylaminobenzonitrile]
107 to 110 °C	CCN(CC)Cc1ccccc1Oc1ccc(-c2cn(C3CCOC3)c3ncnc(N)c23)cc1 (centres unmarked) [Example 27, 2-[4-(4-Amino-7-(3-tetrahydrofuryl)-7H-pyrrolo[2,3-d]pyrimidin-5-yl)phenoxy]-N,N-diethylbenzylamine]
120 °C	Cl.Cl.NCCCCCCCCn1cc(-c2ccc(Oc3ccccc3)cc2)c2c(N)ncnc21.O.O (hydrate or solvate)
199 to 200 °C	Nc1ncnc2c1c(-c1ccc(Oc3ccccc3)cc1)cn2C1CCC(O)CC1 (centres unmarked) [Example 243, 4-[4-Amino-5-(4-phenoxyphenyl)-7H-pyrrolo[2,3-d]pyrimidin-7-yl]cyclohexanol]
227 to 228 °C	CC(C)(C(N)=O)n1cc(-c2ccc(Oc3ccccc3)cc2)c2c(N)ncnc21 [Example 160, 2-[4-Amino-5-(4-phenoxyphenyl)pyrrolo[2,3-d]pyrimidin-7-yl]-2-methylpropionamide]
185 to 187 °C	Nc1ncnc2c1c(-c1ccc(Oc3ccccc3C=O)cc1)cn2C1CCOC1 (centres unmarked) [Example 29, 2-[4-(4-Amino-7-(3-tetrahydrofuryl)-7H-pyrrolo[2,3-d)pyrimidin-5-yl)phenoxy]benzaldehyde]
183 to 184 °C	COCCCNc1cccc(Oc2ccc(-c3cn(C4CCOC4)c4ncnc(N)c34)cc2)c1C#N (centres unmarked) [Example 41, 2-[4-(4-Amino-7-(3-tetrahydrofuryl)-7H-pyrrolo[2,3-d]pyrimidin-5-yl)phenoxy]-6-(3-methoxypropylamino)benzonitrile]
122 to 122.5 °C	CCN1CCCC1CNC(=O)Cn1cc(-c2ccc(Oc3ccccc3)cc2)c2c(N)ncnc21 (centres unmarked) [Example 155, N-(N-Ethylpyrrolidin-2-ylmethyl)-2-[4-amino-5-(4-phenoxyphenyl)-7H-pyrrolo[2,3-d]-pyrimidin-7-yl]acetamide]
242 to 242.5 °C	N#Cc1cccnc1-n1cc(-c2ccc(Oc3ccccc3)cc2)c2c(N)ncnc21 [Example 180, 2-[4-Amino-5-(4-phenoxyphenyl)-7H-pyrrolo[2,3-d]pyrimidin-7-yl]pyridine-3-carbonitrile]
188 to 188.5 °C	Nc1ncnc2c1c(-c1ccc(Oc3ccccc3)cc1)cn2S(=O)(=O)C1CCCC1 [Example 168, 7-Cyclopentanesulphonyl-5-(4-phenoxyphenyl)-7H-pyrrolo[2,3-d]pyrimidin-4-ylamine]
120 to 123 °C	N#Cc1c(NCCc2ccncc2)cccc1Oc1ccc(-c2cn(C3CCOCC3)c3ncnc(N)c23)cc1 [Example 51, 2-[4-(4-Amino-7-(4-tetrahydropyranyl)-7H-pyrrolo[2,3-d]pyrimidin-5-yl)phenoxy]-6-(2-(4-pyridyl)ethylamino)benzonitrile]
201 to 203 °C	N#Cc1ccccc1Oc1ccc(-c2cn(C3CCOC3)c3ncnc(N)c23)cc1 (centres unmarked) [Example 28, 2-[4-(4-Amino-7-(3-tetrahydrofuryl)-7H-pyrrolo[2,3-d]pyrimidin-5-yl)phenoxy]-benzonitrile]
